Earlier results as cited in US20240358747A1, “SOME GEL FORMULATIONS THAT PROVIDE WOUND HEALING AND THE SYNTHESIS OF DYSPROSIUM ERBIUM BORATE TRIHYDRATE (Dy0.5Er0.5BO3.3H2O) COMPOUND USED IN THESE FORMULATIONS” (VERTRATECH KIMYA SANAYI VE TICARET LIMITED SIRKETI, priority 2021, published 2024).

Settings: topical application of 3% boric acid to wounds

For `OB(O)O` [boric acid], the “length of stay in intensive care units” value is listed as “reduces the length of stay in intensive care units three times”.
